The supplement of paper PMC8617591

Key:
[1] = test system: Mycobacterium tuberculosis Erdman (autoluminescent); assay: FIC50 (Loewe) at 50% inhibition (log2); higher = more antagonistic
Experimental: (§1)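 DiaMOND equipotent two-drug combination dose responses against autoluminescent M. tuberculosis Erdman in 8 in vitro models. Read-out is OD600, or luminescence for the intracellular and dormancy models, normalised to untreated wells. Hill-fit Einf, AUC25 and GRinf are potency metrics; FIC50 and FIC90 are Loewe-additivity fractional inhibitory concentrations, given as log2 (negative = synergy). Replicates are averaged.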

[2] = test system: Mycobacterium tuberculosis Erdman (autoluminescent); assay: FIC90 (Loewe) at 90% inhibition (log2); higher = more antagonistic
Experimental: as §1

[3] = test system: Mycobacterium tuberculosis Erdman (autoluminescent); assay: Einf, fitted maximum growth inhibition of combination (fraction); higher = stronger maximal inhibition
Experimental: as §1

[4] = test system: Mycobacterium tuberculosis Erdman (autoluminescent); assay: GRinf, maximum normalised growth rate inhibition (unitless (-1 to 1)); higher = less effect (negative = killing)
Experimental: as §1

[5] = test system: Mycobacterium tuberculosis Erdman (autoluminescent); assay: AUC25, normalised area under dose response up to IC25 (fraction (0-1)); higher = more potent at low dose
Experimental: as §1

CC(=O)NC[C@H]1CN(c2ccc(N3CCOCC3)c(F)c2)C(=O)O1 [linezolid] + COc1c(N2C[C@@H]3CCCN[C@@H]3C2)c(F)cc2c(=O)c(C(=O)O)cn(C3CC3)c12 [moxifloxacin]
Settings | AUC25, [5] | Einf, [3] | FIC50, [1] | FIC90, [2] | GRinf, [4]
in vitro model: acidic pH 5.7, time point: constant (~7 days, model-specific) | 0.144 | 0.799 | -0.0102 | – | -0.581
in vitro model: acidic pH 5.7, time point: terminal (~4-5 doublings, model-specific) | 0.102 | 0.963 | 0.872 | 0.52 | -0.271
in vitro model: intracellular J774, time point: constant = terminal | – | 0.909 | – | 0.463 | -0.14

Settings | AUC25, [5] | Einf, [3] | FIC50, [1] | FIC90, [2] | GRinf, [4]
in vitro model: butyrate, time point: constant (~7 days, model-specific) | 0.0878 | 0.885 | 0.397 | 1.22 | 0.0908
in vitro model: butyrate, time point: terminal (~4-5 doublings, model-specific) | 0.0618 | 0.939 | 0.323 | 0.392 | 0.0886
in vitro model: cholesterol 0.05 mM, time point: constant (~7 days, model-specific) | 0.124 | 0.679 | -0.444 | – | -0.0664
in vitro model: cholesterol 0.05 mM, time point: terminal (~4-5 doublings, model-specific) | 0.137 | 0.938 | 0.0528 | -0.309 | -0.215
in vitro model: cholesterol-high 0.2 mM, time point: constant (~7 days, model-specific) | 0.123 | 0.95 | -0.129 | 0.814 | -0.546
in vitro model: cholesterol-high 0.2 mM, time point: terminal (~4-5 doublings, model-specific) | 0.125 | 1 | -0.211 | 0.433 | -0.844
in vitro model: dormancy (butyrate + nitrate, low O2), time point: constant (~7 days, model-specific) | 0.0537 | 0.914 | 0.869 | 0.521 | 0.139
in vitro model: dormancy (butyrate + nitrate, low O2), time point: terminal (~4-5 doublings, model-specific) | 0.0589 | 0.964 | 0.671 | 0.922 | 0.061
in vitro model: standard 7H9 glycerol, time point: constant = terminal | 0.0831 | 0.955 | 0.52 | 0.972 | -0.197
in vitro model: valerate, time point: constant (~7 days, model-specific) | 0.11 | 0.856 | 0.339 | – | 0.0191
in vitro model: valerate, time point: terminal (~4-5 doublings, model-specific) | 0.0688 | 0.932 | 0.36 | 0.679 | 0.0477

CC(=O)NC[C@H]1CN(c2ccc(N3CCOCC3)c(F)c2)C(=O)O1 [linezolid] + NC(=O)c1cnccn1 [pyrazinamide]
Settings | AUC25, [5] | Einf, [3] | FIC50, [1] | FIC90, [2] | GRinf, [4]
in vitro model: acidic pH 5.7, time point: constant (~7 days, model-specific) | 0.0815 | 0.856 | 0.463 | – | -0.176
in vitro model: acidic pH 5.7, time point: terminal (~4-5 doublings, model-specific) | 0.0982 | 0.985 | 0.393 | -1.67 | -0.358
in vitro model: intracellular J774, time point: constant = terminal | – | 0.948 | – | 0.0529 | -0.235

Settings | AUC25, [5] | Einf, [3] | FIC50, [1] | FIC90, [2] | GRinf, [4]
in vitro model: butyrate, time point: constant (~7 days, model-specific) | 0.119 | 0.897 | -0.211 | 1.73 | 0.0498
in vitro model: butyrate, time point: terminal (~4-5 doublings, model-specific) | 0.0989 | 0.95 | -0.152 | 0.565 | 0.0146
in vitro model: cholesterol 0.05 mM, time point: constant (~7 days, model-specific) | 0.142 | 0.724 | – | – | -0.126
in vitro model: cholesterol 0.05 mM, time point: terminal (~4-5 doublings, model-specific) | 0.141 | 0.95 | 0.09 | – | -0.256
in vitro model: cholesterol-high 0.2 mM, time point: constant (~7 days, model-specific) | 0.114 | 0.957 | 0.0387 | – | -0.407
in vitro model: cholesterol-high 0.2 mM, time point: terminal (~4-5 doublings, model-specific) | 0.115 | 0.999 | 0.0483 | 0.383 | -0.83
in vitro model: dormancy (butyrate + nitrate, low O2), time point: constant (~7 days, model-specific) | 0.0601 | 0.878 | 0.507 | 0.733 | 0.236
in vitro model: dormancy (butyrate + nitrate, low O2), time point: terminal (~4-5 doublings, model-specific) | 0.0422 | 0.823 | 0.0853 | 1.09 | 0.182
in vitro model: standard 7H9 glycerol, time point: constant = terminal | 0.0807 | 0.939 | 0.336 | – | -0.0617
in vitro model: valerate, time point: constant (~7 days, model-specific) | 0.0877 | 0.798 | -0.432 | – | 0.131
in vitro model: valerate, time point: terminal (~4-5 doublings, model-specific) | 0.0556 | 0.892 | -0.271 | 1.25 | 0.137

CC(=O)NC[C@H]1CN(c2ccc(N3CCOCC3)c(F)c2)C(=O)O1 [linezolid] + O=[N+]([O-])c1cn2c(n1)OC[C@@H](OCc1ccc(OC(F)(F)F)cc1)C2 [pretomanid]
Settings | AUC25, [5] | Einf, [3] | FIC50, [1] | FIC90, [2] | GRinf, [4]
in vitro model: acidic pH 5.7, time point: constant (~7 days, model-specific) | 0.116 | 0.89 | 0.583 | – | -0.559
in vitro model: acidic pH 5.7, time point: terminal (~4-5 doublings, model-specific) | 0.0893 | 0.984 | 0.324 | 0.246 | -0.355
in vitro model: intracellular J774, time point: constant = terminal | – | 0.993 | – | 1.06 | -0.54

Settings | AUC25, [5] | Einf, [3] | FIC50, [1] | FIC90, [2] | GRinf, [4]
in vitro model: butyrate, time point: constant (~7 days, model-specific) | 0.0973 | 0.907 | 0.595 | 1.47 | 0.0334
in vitro model: butyrate, time point: terminal (~4-5 doublings, model-specific) | 0.0643 | 0.947 | 0.4 | 0.493 | 0.0161
in vitro model: cholesterol 0.05 mM, time point: constant (~7 days, model-specific) | 0.13 | 0.708 | -0.367 | – | -0.103
in vitro model: cholesterol 0.05 mM, time point: terminal (~4-5 doublings, model-specific) | 0.142 | 0.942 | -0.293 | 0.00527 | -0.182
in vitro model: cholesterol-high 0.2 mM, time point: constant (~7 days, model-specific) | 0.0977 | 0.869 | -0.451 | -0.477 | -0.114
in vitro model: cholesterol-high 0.2 mM, time point: terminal (~4-5 doublings, model-specific) | 0.111 | 0.992 | -0.228 | 0.311 | -0.548
in vitro model: dormancy (butyrate + nitrate, low O2), time point: constant (~7 days, model-specific) | 0.0359 | 0.925 | 0.74 | 0.509 | 0.0858
in vitro model: dormancy (butyrate + nitrate, low O2), time point: terminal (~4-5 doublings, model-specific) | 0.0385 | 0.991 | 0.255 | 0.232 | -0.248
in vitro model: standard 7H9 glycerol, time point: constant = terminal | 0.0819 | 0.971 | 0.34 | 0.309 | -0.171
in vitro model: valerate, time point: constant (~7 days, model-specific) | 0.102 | 0.802 | 1.02 | – | 0.0728
in vitro model: valerate, time point: terminal (~4-5 doublings, model-specific) | 0.123 | 0.951 | -0.689 | 0.943 | 0.0215

COc1c(N2C[C@@H]3CCCN[C@@H]3C2)c(F)cc2c(=O)c(C(=O)O)cn(C3CC3)c12 [moxifloxacin] + CO[C@H]1/C=C/O[C@@]2(C)Oc3c(C)c(O)c4c(O)c(c(/C=N/N5CCN(C6CCCC6)CC5)c(O)c4c3C2=O)NC(=O)/C(C)=C\C=C\[C@H](C)[C@H](O)[C@@H](C)[C@@H](O)[C@@H](C)[C@H](OC(C)=O)[C@@H]1C [rifapentine]
Settings | AUC25, [5] | Einf, [3] | FIC50, [1] | FIC90, [2] | GRinf, [4]
in vitro model: acidic pH 5.7, time point: constant (~7 days, model-specific) | 0.0469 | 0.776 | 0.389 | – | 0.0776
in vitro model: acidic pH 5.7, time point: terminal (~4-5 doublings, model-specific) | 0.0544 | 0.962 | 0.463 | 0.271 | -0.0233
in vitro model: intracellular J774, time point: constant = terminal | – | 0.973 | – | 0.684 | -0.226

Settings | AUC25, [5] | Einf, [3] | FIC50, [1] | FIC90, [2] | GRinf, [4]
in vitro model: butyrate, time point: constant (~7 days, model-specific) | 0.0933 | 0.893 | 0.555 | 0.73 | 0.0724
in vitro model: butyrate, time point: terminal (~4-5 doublings, model-specific) | 0.0734 | 0.956 | 0.515 | 0.586 | 0.0272
in vitro model: cholesterol 0.05 mM, time point: constant (~7 days, model-specific) | 0.131 | 0.594 | 0.777 | – | -0.074
in vitro model: cholesterol 0.05 mM, time point: terminal (~4-5 doublings, model-specific) | 0.0876 | 0.887 | 0.482 | 1.32 | -0.0906
in vitro model: cholesterol-high 0.2 mM, time point: constant (~7 days, model-specific) | 0.082 | 0.903 | 0.798 | -0.159 | -0.242
in vitro model: cholesterol-high 0.2 mM, time point: terminal (~4-5 doublings, model-specific) | 0.0641 | 0.996 | 0.807 | 0.727 | -0.866
in vitro model: dormancy (butyrate + nitrate, low O2), time point: constant (~7 days, model-specific) | 0.0771 | 0.915 | 0.269 | 0.0994 | 0.17
in vitro model: dormancy (butyrate + nitrate, low O2), time point: terminal (~4-5 doublings, model-specific) | 0.0532 | 0.985 | 0.72 | 0.719 | -0.231
in vitro model: standard 7H9 glycerol, time point: constant = terminal | 0.0584 | 0.893 | 0.509 | 0.225 | 0.0707
in vitro model: valerate, time point: constant (~7 days, model-specific) | 0.0746 | 0.844 | 0.4 | – | 0.0459
in vitro model: valerate, time point: terminal (~4-5 doublings, model-specific) | 0.0547 | 0.933 | 0.541 | 1.69 | 0.0582
